SMILES strings stand for the structures.

The data set in a line: CuAAC macrocyclisation of azide/terminal alkyne linear peptidomimetics to 1,4-triazole (CuI 2 eq, DIPEA 3 eq, Ar-degassed), then Boc removal (TMSCl/MeOH GP4; HCl/dioxane GP5 for A13w, J13w). The note with it: THF (reflux), 1.2 mM, 66.0 °C, 18.0 h, 2 steps.

Regarding `COC(=O)[C@@H]1CCCCNC(=O)[C@H](Cc2ccccc2)n2cc(nn2)CNC(=O)NCCCC[C@H](NC(=O)OC(C)(C)C)C(=O)N1` [Boc-Lys(CONH-propargyl)-Lys(N3-Phe)-OMe], where the note is “from C#CCNC(=O)NCCCC[C@H](NC(=O)OC(C)(C)C)C(=O)N[C@@H](CCCCNC(=O)[C@H](Cc1ccccc1)N=[N+]=[N-])C(=O)OC, 22-membered ring”, the ring closure, yield over several steps came out at 99%. Under “from C#CCNC(=O)NCC[C@H](NC(=O)OC(C)(C)C)C(=O)N[C@@H](CNC(=O)[C@H](Cc1ccccc1)N=[N+]=[N-])C(=O)OC, 17-membered ring”, `COC(=O)[C@@H]1CNC(=O)[C@H](Cc2ccccc2)n2cc(nn2)CNC(=O)NCC[C@H](NC(=O)OC(C)(C)C)C(=O)N1` [Boc-Dab(CONH-propargyl)-Dap(N3-Phe)-OMe] had a ring closure, yield over several steps of 64%. `COC(=O)[C@@H]1CCCCn2cc(nn2)CCC(=O)NCCC[C@H](NC(=O)OC(C)(C)C)C(=O)N1` [Boc-Orn(4-pentynoyl)-Lys(N3)-OMe] gave a ring closure, yield over several steps (from C#CCCC(=O)NCCC[C@H](NC(=O)OC(C)(C)C)C(=O)N[C@@H](CCCCN=[N+]=[N-])C(=O)OC, 18-membered ring) of 93%. `COC(=O)[C@@H]1CCCn2cc(nn2)CCCC(=O)NCCCC[C@H](NC(=O)OC(C)(C)C)C(=O)N1` [Boc-Lys(5-hexynoyl)-Orn(N3)-OMe] yielded a ring closure, yield over several steps (from C#CCCCC(=O)NCCCC[C@H](NC(=O)OC(C)(C)C)C(=O)N[C@@H](CCCN=[N+]=[N-])C(=O)OC, 19-membered ring) of 40%. Molecule `COC(=O)[C@@H]1CCCCNC(=O)[C@H](Cc2ccccc2)n2cc(nn2)CNC(=O)NC[C@H](NC(=O)OC(C)(C)C)C(=O)N1` [Boc-Dap(CONH-propargyl)-Lys(N3-Phe)-OMe] had a ring closure, yield over several steps (from C#CCNC(=O)NC[C@H](NC(=O)OC(C)(C)C)C(=O)N[C@@H](CCCCNC(=O)[C@H](Cc1ccccc1)N=[N+]=[N-])C(=O)OC, 19-membered ring) of 99%. Under “from C#CCCCC(=O)NCCC[C@H](NC(=O)OC(C)(C)C)C(=O)N[C@@H](CCCCN=[N+]=[N-])C(=O)OC, 19-membered ring”, `COC(=O)[C@@H]1CCCCn2cc(nn2)CCCC(=O)NCCC[C@H](NC(=O)OC(C)(C)C)C(=O)N1` [Boc-Orn(5-hexynoyl)-Lys(N3)-OMe] registered a ring closure, yield over several steps of 99%. In the case of `COC(=O)[C@@H]1CCCCn2cc(nn2)CCC(=O)NCC[C@H](NC(=O)OC(C)(C)C)C(=O)N1` [Boc-Dab(4-pentynoyl)-Lys(N3)-OMe], where the note is “from C#CCCC(=O)NCC[C@H](NC(=O)OC(C)(C)C)C(=O)N[C@@H](CCCCN=[N+]=[N-])C(=O)OC, 17-membered ring”, the ring closure, yield over several steps came out at 62%. Molecule `COC(=O)[C@@H]1CCCCn2cc(nn2)CNC(=O)NC[C@H](NC(=O)OC(C)(C)C)C(=O)N1` [Boc-Dap(CONH-propargyl)-Lys(N3)-OMe] showed a ring closure, yield over several steps (from C#CCNC(=O)NC[C@H](NC(=O)OC(C)(C)C)C(=O)N[C@@H](CCCCN=[N+]=[N-])C(=O)OC, 16-membered ring) of 56%. `COC(=O)[C@@H]1CCCn2cc(nn2)CNC(=O)NCCC[C@H](NC(=O)OC(C)(C)C)C(=O)N1` [Boc-Orn(CONH-propargyl)-Orn(N3)-OMe]: the ring closure, yield over several steps (from C#CCNC(=O)NCCC[C@H](NC(=O)OC(C)(C)C)C(=O)N[C@@H](CCCN=[N+]=[N-])C(=O)OC, 17-membered ring) came to 99%. With `COC(=O)[C@@H]1CCCCNC(=O)[C@H](Cc2ccccc2)n2cc(nn2)CCC(=O)NCCC[C@H](NC(=O)OC(C)(C)C)C(=O)N1` [Boc-Orn(4-pentynoyl)-Lys(N3-Phe)-OMe], the ring closure, yield over several steps (from C#CCCC(=O)NCCC[C@H](NC(=O)OC(C)(C)C)C(=O)N[C@@H](CCCCNC(=O)[C@H](Cc1ccccc1)N=[N+]=[N-])C(=O)OC, 21-membered ring) turned out to be 88%. The molecule `COC(=O)[C@@H]1CCCn2cc(nn2)CCCC(=O)NCC[C@H](NC(=O)OC(C)(C)C)C(=O)N1` [Boc-Dab(5-hexynoyl)-Orn(N3)-OMe] had a ring closure, yield over several steps (from C#CCCCC(=O)NCC[C@H](NC(=O)OC(C)(C)C)C(=O)N[C@@H](CCCN=[N+]=[N-])C(=O)OC, 17-membered ring) of 60%.

In the case of `COC(=O)[C@@H]1CCCCn2cc(nn2)CNC(=O)NCCC[C@H](NC(=O)OC(C)(C)C)C(=O)N1` [Boc-Orn(CONH-propargyl)-Lys(N3)-OMe], for the setting “from C#CCNC(=O)NCCC[C@H](NC(=O)OC(C)(C)C)C(=O)N[C@@H](CCCCN=[N+]=[N-])C(=O)OC, 18-membered ring”, the ring closure, yield over several steps worked out at 99%. With `COC(=O)[C@@H]1CCCCn2cc(nn2)CCC(=O)NCCCC[C@H](NC(=O)OC(C)(C)C)C(=O)N1` [Boc-Lys(4-pentynoyl)-Lys(N3)-OMe], the ring closure, yield over several steps (from C#CCCC(=O)NCCCC[C@H](NC(=O)OC(C)(C)C)C(=O)N[C@@H](CCCCN=[N+]=[N-])C(=O)OC, 19-membered ring) amounted to 30%. As for `COC(=O)[C@@H]1CCCn2cc(nn2)CCC(=O)NCCCC[C@H](NC(=O)OC(C)(C)C)C(=O)N[C@H](C(=O)OC)CCC(=O)N1` [Boc-Lys(4-pentynoyl)-Glu(gamma-Orn(N3)-OMe)-OMe], the ring closure, yield over several steps (from C#CCCC(=O)NCCCC[C@H](NC(=O)OC(C)(C)C)C(=O)N[C@@H](CCC(=O)N[C@@H](CCCN=[N+]=[N-])C(=O)OC)C(=O)OC, 23-membered ring) is 86%. For the molecule `COC(=O)[C@@H]1CCCn2cc(nn2)CCCC(=O)NCCC[C@H](NC(=O)OC(C)(C)C)C(=O)N1` [Boc-Orn(5-hexynoyl)-Orn(N3)-OMe], under “from C#CCCCC(=O)NCCC[C@H](NC(=O)OC(C)(C)C)C(=O)N[C@@H](CCCN=[N+]=[N-])C(=O)OC, 18-membered ring”, the ring closure, yield over several steps worked out at 71%. Regarding `COC(=O)[C@@H]1CCCCNC(=O)[C@H](Cc2ccccc2)n2cc(nn2)CCCC(=O)NC[C@H](NC(=O)OC(C)(C)C)C(=O)N1` [Boc-Dap(5-hexynoyl)-Lys(N3-Phe)-OMe], the ring closure, yield over several steps (from C#CCCCC(=O)NC[C@H](NC(=O)OC(C)(C)C)C(=O)N[C@@H](CCCCNC(=O)[C@H](Cc1ccccc1)N=[N+]=[N-])C(=O)OC, 20-membered ring) was 99%. For `COC(=O)[C@@H]1CNC(=O)[C@H](Cc2ccccc2)n2cc(nn2)CCCC(=O)NC[C@H](NC(=O)OC(C)(C)C)C(=O)N1` [Boc-Dap(5-hexynoyl)-Dap(N3-Phe)-OMe], the ring closure, yield over several steps (from C#CCCCC(=O)NC[C@H](NC(=O)OC(C)(C)C)C(=O)N[C@@H](CNC(=O)[C@H](Cc1ccccc1)N=[N+]=[N-])C(=O)OC, 17-membered ring) is 99%. With `COC(=O)[C@@H]1CCCCNC(=O)[C@H](Cc2ccccc2)n2cc(nn2)CCCC(=O)NCC[C@H](NC(=O)OC(C)(C)C)C(=O)N1` [Boc-Dab(5-hexynoyl)-Lys(N3-Phe)-OMe], the ring closure, yield over several steps (from C#CCCCC(=O)NCC[C@H](NC(=O)OC(C)(C)C)C(=O)N[C@@H](CCCCNC(=O)[C@H](Cc1ccccc1)N=[N+]=[N-])C(=O)OC, 21-membered ring) worked out at 88%. `COC(=O)[C@@H]1CCCn2cc(nn2)CCCC(=O)NC[C@H](NC(=O)OC(C)(C)C)C(=O)N1` [Boc-Dap(5-hexynoyl)-Orn(N3)-OMe] showed a ring closure, yield over several steps (from C#CCCCC(=O)NC[C@H](NC(=O)OC(C)(C)C)C(=O)N[C@@H](CCCN=[N+]=[N-])C(=O)OC, 16-membered ring) of 52%.

`COC(=O)[C@@H]1CNC(=O)[C@H](Cc2ccccc2)n2cc(nn2)CNC(=O)NCCCC[C@H](NC(=O)OC(C)(C)C)C(=O)N1` [Boc-Lys(CONH-propargyl)-Dap(N3-Phe)-OMe] yielded a ring closure, yield over several steps (from C#CCNC(=O)NCCCC[C@H](NC(=O)OC(C)(C)C)C(=O)N[C@@H](CNC(=O)[C@H](Cc1ccccc1)N=[N+]=[N-])C(=O)OC, 19-membered ring) of 70%. Under “from C#CCCCC(=O)NCCCC[C@H](NC(=O)OC(C)(C)C)C(=O)N[C@@H](CCCCN=[N+]=[N-])C(=O)OC, 20-membered ring”, `COC(=O)[C@@H]1CCCCn2cc(nn2)CCCC(=O)NCCCC[C@H](NC(=O)OC(C)(C)C)C(=O)N1` [Boc-Lys(5-hexynoyl)-Lys(N3)-OMe] displayed a ring closure, yield over several steps of 98%.

In the case of `COC(=O)[C@@H]1CCCn2cc(nn2)CCCC(=O)Nc2ccc(cc2)C[C@H](NC(=O)OC(C)(C)C)C(=O)N[C@@H](C)C(=O)N1` [Boc-Phe(4-NH-5-hexynoyl)-Ala-Orn(N3)-OMe], the ring closure, yield over several steps (from C#CCCCC(=O)Nc1ccc(C[C@H](NC(=O)OC(C)(C)C)C(=O)N[C@@H](C)C(=O)N[C@@H](CCCN=[N+]=[N-])C(=O)OC)cc1, 23-membered ring) was 21%. `COC(=O)[C@@H]1CCCn2cc(nn2)CCC(=O)NCC[C@H](NC(=O)OC(C)(C)C)C(=O)N1` [Boc-Dab(4-pentynoyl)-Orn(N3)-OMe]: under “from C#CCCC(=O)NCC[C@H](NC(=O)OC(C)(C)C)C(=O)N[C@@H](CCCN=[N+]=[N-])C(=O)OC, 16-membered ring”, the ring closure, yield over several steps stood at 99%. On to `COC(=O)[C@@H]1CCCCNC(=O)[C@H](Cc2ccccc2)n2cc(nn2)CNC(=O)NCCC[C@H](NC(=O)OC(C)(C)C)C(=O)N1` [Boc-Orn(CONH-propargyl)-Lys(N3-Phe)-OMe], for which the ring closure, yield over several steps (from C#CCNC(=O)NCCC[C@H](NC(=O)OC(C)(C)C)C(=O)N[C@@H](CCCCNC(=O)[C@H](Cc1ccccc1)N=[N+]=[N-])C(=O)OC, 21-membered ring) is 87%.

The values above are taken from publication PMC4441267.
